Among the data in patent US7884122B2, “Extended release formulation and method of treating adrenergic dysregulation” (Shionogi Pharma, Inc., priority 2007, dated 2011) are biological half-life, EC50 and EC90 values, retold here.

Values after ≈ are worked out from the molar mass of the structure shown.

For series [1] the following is noted: traditional oral formulation of clonidine; cited from earlier work.
In series [2] the test system is systolic and diastolic blood pressure. As to the kind of experiment: animal or person. Conditions: Homo sapiens, 600 h, Systolic BP vs AUCτ at Day 25, sigmoidal Emax model. As to the method:
Mean baseline ABPM data for the three treatment groups were compared with mean data obtained on Day 26 (last day of treatment) and on Days 27 and 28. A more detailed PK/PD analysis was conducted by using the individual patient ABPM data to compare the blood pressure profile at Baseline and on Day 26 of treatment. The daytime (0- to 12-hour) intervals were used in the analysis, since pharmacokinetic data were collected on Day 25, over the daytime 12-hour dosing interval at steady state. In order to investigate the maintenance of effect at the tail end of the inter-dosing interval, differences between the SBP, DBP, and HR values at Baseline and the last two hours in the inter-dosing interval (Hours 11 and 12) on Day 26 were calculated for each patient. Paired t-tests were performed to test the significance of these differences between Baseline and the last two measuring times. The approach taken to quantify the effects of clonidine on blood pressure was to calculate the difference between the areas under the BP vs. time curves (AUCBP) at Baseline and on Day 26. These values were used to relate the pharmacodynamic effect to dose, as well as to conduct the PK/PD analyses.
Pharmacokinetic-pharmacodynamic modeling was conducted using the blood pressure response data and the Cmax, Cmin and AUCτ values at Day 25 of dosing. […]

`Clc1cccc(Cl)c1N=C1NCCN1` [clonidine, 2,6-dichloro-N-2-imidazolidinylidene benzeneamine]: the biological half-life entry in series [1] was “about four to six hours”. Also, in series [2], the midpoint of the response, the EC50, lay at 4.7 ng/mL (≈ 0.0204 µM) and the EC90 (in general, the concentration needed for an effect of 90%) amounted to 6.69 ng/mL (≈ 0.0291 µM).
